Tests used:
[1] = Titration with NaOH for the experimental ionization profile in a hydroalcoholic base; assay type: physicochemical; conditions: hydroalcoholic vehicle (ethanol 45%, propylene glycol 20%, water 25.58%), not gellified; read-out: apparent pKa from the experimental ionization profile
Text: The following formulation was used for titration to determine the experimental ionization profile of ropinirole in a hydroalcoholic base: Ropinirole hydrochloride* 3.42% w/w, myristyl alcohol 1.00% w/w, diethylene glycol monoethylether 5.00% w/w, propylene glycol 20.00% w/w, absolute ethanol 45.00% w/w, and purified water 25.58% w/w (total 100; * ropinirole HCl 3.42% (MW=296.84) corresponds to ropinirole free base 3% (MW=260.38), ratio 1.14). The formulation was not gellified.
The ropinirole HC1 solution was titrated with NaOH 0.1 M solution. The solvent was the same as the formulation, in order to keep a constant composition. NaOH was chosen so as to limit dilution of the titrated formulation; but no dilution correction was made. The formulation was titrated by 0.5-1 mL increments where the pH change was small. Increments were reduced to 0.1 mL near the equivalence point. The pH was monitored with a glass electrode (Mettler Toledo InLab 432, Mettler-Toledo, Inc., Columbus, Ohio), and recorded with a Mettler Toledo MP. 230 pH meter (Mettler-Toledo, Inc., Columbus, Ohio).
Based on the titration curve, the ionization rate [BH] was calculated according to Henderson-Hasselbalch equation for weak base: […]

[2] = human
Description: In vitro data can be extrapolated to in vivo conditions in order to evaluate the gel dose for bioequivalence to ropinirole oral absorption. […] Therefore, an intermediate oral dose of 6 mg/day with BA=50% delivers a systemic dose of 3 mg/day. […] This corresponds to a daily dose of 9.5 mg ropinirole HCl (equivalent to 8.3 mg free base).
Based on these pharmacokinetic parameters, the daily input rate can be estimated using the following equation: Ka=CL×Cp, where Ka is the daily input rate (absorption rate), CL the drug plasma clearance, and Cp the plasma concentration.
Scaled to the clinical daily input rate, the required skin surface can be determined using the following equation: S=Ka/JSS, wherein S is the application skin surface area, and JSS is the in vitro steady-state drug flux.
Alternatively, the gel amount could be increased by 3.7 times (1 g instead of 0.3 g), and be applied to a 3.7 times larger skin area (185 cm instead of 50 cm^2).
This corresponds to a daily dose of 15 mg ropinirole HCl (equivalent to 13 mg free base).

[3] = cited from earlier work
[4] = In vitro permeation, Franz cells, cadaver skin finite dose technique (Example 1); assay type: in vitro ADME, human
Description: The in vitro human cadaver skin model has proven to be a valuable tool for the study of percutaneous absorption and the determination of topically applied drugs. The model uses human cadaver skin mounted in specially designed diffusion cells that allow the skin to be maintained at a temperature and humidity that match typical in vivo conditions (Franz, T. J., “Percutaneous absorption: on the relevance of in vitro data,” J. Invest Dermatol 64:190-195 (1975)). A finite dose (for example: 4-7 mg/cm^2) of formulation is applied to the outer surface of the skin and drug absorption is measured by monitoring its rate of appearance in the receptor solution bathing the inner surface of the skin. Data defining total absorption, rate of absorption, as well as skin content can be accurately determined in this model. The method has historic precedent for accurately predicting in vivo percutaneous absorption kinetics (Franz, T. J., “The finite dose technique as a valid in vitro model for the study of percutaneous absorption in man,” In: Skin: Drug Application and Evaluation of Environmental Hazards, Current Problems in Dermatology, vol. 7, G. Simon, Z. Paster, M Klingberg, M. Kaye (Eds), Basel, Switzerland, S. Karger, pages 58-68 (1978)).
Percutaneous absorption was measured using the in vitro cadaver skin finite dose technique. Cryo-preserved, human cadaver trunk skin was obtained from a skin bank and stored in water-impermeable plastic bags at <−70° C. until used.
Prior to the experiment, skin was removed from the bag, placed in approximately 37° C. water for five minutes, and then cut into sections large enough to fit on 1 cm^2 Franz Cells (Crown Glass Co., Somerville, N.J.). Briefly, skin samples were prepared as follows. A small volume of phosphate buffered saline (PBS) was used to cover the bottom of the Petri dishes. Skin disks generally depleted of fat layers were placed in the Petri dishes for hydration. A Stadie-Riggs manual tissue microtome was used for slicing excised skin samples. Approximately 2 mL of PBS was placed into the middle cavity of the microtome as slicing lubricant. Skin disks were placed, dermal side up, into the middle cavity of the microtome. Filter paper was soaked with PBS, inserted in the cavity just above the skin disk. The filter paper prevented the dermis from sliding onto the top of the cutting block and helped to insure more precise cutting. When all three blades of the microtome were assembled, the microtome was turned into the upright position. Using a regular and careful sawing motion the skin tissue was sliced in cross-section. The skin tissue slice was removed with the tweezers and placed in the Petri dish for hydration. Each skin slice was wrapped in Parafilm® (Pechiney Plastic Packaging, Inc., Chicago, Ill.) laboratory film and placed in water-impermeable plastic bags. Skin samples were identified by the donor and the provider code. If further storage was necessary, the skin slices were stored in the freezer at −20° C. until further use.
The epidermal cell (chimney) was left open to ambient laboratory conditions. The dermal cell was filled with receptor solution. Receptor solution for in vitro skin permeations was typically an isotonic saline at physiological pH. The receptor solution may also contain a drug solubilizer, for example, to increase lipophilic drug solubility in the receptor phase. […]

[5] = test system: guinea pigs; assay: Skin sensitization, induction and challenge; assay type: in vivo; conditions: guinea pigs induced (with and without Freund's Complete Adjuvant) and challenged with 5% ropinirole HCl
[6] = water at 20° C.; cited from earlier work
[7] = EtOH(45)/Water(40)/PG(10), 5% drug

SMILES	pKa [1]	Ka, daily input rate (absorption rate), Ka=CL×Cp [2] [µg/h]	Body clearance ([3]; REQUIP Prescribing Information)	maximum plasma levels (Cmax) ([3]; repeated oral administration, 6 mg/day in 3 divided doses, steady state (Taylor et al.)) [ng/mL]	skin permeation characteristics [4, 7]	peak flux ([4]; EtOH(45)/Water(40)/PG(10), 5% drug, pH 9.5-10.0) [μg/cm^2/hr]	ropinirole remained in the epidermis ([4]; after 48 hours)	Bioavailability in the receptor chamber fluid ([4]; percent dose recovered in receptor fluid)	sensitization category [5]	solubility in water [6] [mg/mL]
CCCN(CCC)CCc1cccc2c1CC(=O)N2 [ropinirole]	8	347.8	about 47 L/h	7.4						
CCCN(CCC)CCc1cccc2c1CC(=O)N2 [ropinirole free base]					good permeation characteristics	3.5	Approximately 20%	about 40%		
CCCN(CCC)CCc1cccc2c1CC(=O)N2.Cl [Ropinirole hydrochloride, 4-[2-(dipropylamino)-ethyl]-1,3-dihydro-2H-indol-2-one monohydrochloride]					did not permeate well				mild sensitizer	133
